Measurements: patent US4943574A, “(1H-azol-1-ylmethyl) substituted benzotriazole derivatives and pharmaceutical compositions containing them” (Janssen Pharmaceutica N.V., priority 1989, dated 1990)
Counter-ions that a name gives are not always drawn. One block for each compound: values may come before it.

Legend:
aromatase [1] = target: T1, aromatase (Homo sapiens, UniProt P11511); assay: biochemical; details: human placental microsomes, 30 min at 37° C., pH 7.4, 1,2[3H]androstenedione; read-out: IC50-values (concentration of the compound required to obtain 50% inhibition of the estrogen synthesis)
T1 sequence (P11511 1-503): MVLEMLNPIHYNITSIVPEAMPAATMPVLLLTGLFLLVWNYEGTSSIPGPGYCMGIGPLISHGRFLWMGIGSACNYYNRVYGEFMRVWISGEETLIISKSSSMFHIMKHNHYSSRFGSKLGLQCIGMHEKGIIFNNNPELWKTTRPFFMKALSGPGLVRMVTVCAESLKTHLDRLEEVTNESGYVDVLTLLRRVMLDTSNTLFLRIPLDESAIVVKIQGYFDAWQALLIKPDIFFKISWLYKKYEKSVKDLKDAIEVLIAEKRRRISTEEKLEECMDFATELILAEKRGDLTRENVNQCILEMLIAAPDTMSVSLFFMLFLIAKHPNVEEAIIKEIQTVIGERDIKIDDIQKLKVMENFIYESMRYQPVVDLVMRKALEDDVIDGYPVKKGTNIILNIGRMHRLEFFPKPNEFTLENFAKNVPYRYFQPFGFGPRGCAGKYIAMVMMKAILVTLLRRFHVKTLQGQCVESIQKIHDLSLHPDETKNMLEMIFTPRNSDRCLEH
Procedure: Human placental microsomes were diluted in potassium phosphate buffer (0.1M, pH 7.4) to give about 50% conversion of androgens to estrogens (protein content: about 0.5 mg). Four ml human placental microsomes were incubated in a final volume of 5 ml with 0.2 μCi1,2[3H]-androstenedione, 2 μg androstendione and 5 μl of test compound and/or dimethyl sulfoxide (DMSO). […] The reaction was initiated by the addition of androstenedione and proceeded for 30 min at 37° C. During the incubation period, the mixtures were gassed with air. In this assay, aromatization of androstenedione results in the production of [3H]-H2 O which is isolated by extracting the samples with chloroform to remove the free steroid.

aromatase [2] = assay: In vivo-inhibition of the aromatase activity (plasma estradiol in PMSG-injected immature female Wistar rats); design: species or system rat (immature female Wistar rats); details: 1 mg/kg oral gavage, two hours following administration, PMSG-injected immature female Wistar rats
Procedure: Immature female Wistar rats weighing 120 g were injected subcutaneously with 200 I.U. of pregnant mare's serum gonadotropin (PMSG). […] Control animals received 20% polyethyleneglycol only. Two hours following drug or placebo administration the rats were killed by decapitation and trunk blood was collected on heparine. Plasma estradiol concentrations were measured by standard radio-immunological procedures.

aromatase [3] = details: reported in Biochemical Pharmacology, 34, 1087 (1985); cited from earlier work

SMILES: c1cn(Cc2ccc3nnn(C4CCCC4)c3c2)cn1 [Compound 107]
IC50 (aromatase [1]): 14.1 nM | % recovery estradiol (plasma estradiol relative to the controls) (aromatase [2]): 6%

SMILES: Fc1ccc(C(c2ccc3[nH]nnc3c2)n2ccnc2)cc1 (stereo not shown) [Compound 113]
IC50 (aromatase [1]): 18.8 nM | % recovery estradiol (plasma estradiol relative to the controls) (aromatase [2]): 4%

SMILES: c1ccc2c(c1)CCC2n1nnc2ccc(Cn3ccnc3)cc21 (stereo not shown) [Compound 115]
IC50 (aromatase [1]): 14.4 nM | % recovery estradiol (plasma estradiol relative to the controls) (aromatase [2]): 22%

SMILES: CC(C)n1nnc2ccc(C(c3ccc(Cl)cc3)n3ccnc3)cc21 (stereo not shown) [Compound 116]
IC50 (aromatase [1]): 24.9 nM | % recovery estradiol (plasma estradiol relative to the controls) (aromatase [2]): 20%

SMILES: Clc1ccc(C(c2ccc3nnn(C4CCCCC4)c3c2)n2ccnc2)cc1 (stereo not shown) [Compound 117]
IC50 (aromatase [1]): 12.5 nM | % recovery estradiol (plasma estradiol relative to the controls) (aromatase [2]): 9%

SMILES: CC(C)On1nnc2ccc(Cn3ccnc3)cc21 [Compound 195, 6-(1H-imidazol-1-ylmethyl)-1-(1-methylethoxy)-1H-benzotriazole]
IC50 (aromatase [1]): 12 nM | % recovery estradiol (plasma estradiol relative to the controls) (aromatase [2]): 19%

SMILES: CCCCCOn1nnc2ccc(Cn3ccnc3)cc21 [Compound 201]
IC50 (aromatase [1]): 6.7 nM | % recovery estradiol (plasma estradiol relative to the controls) (aromatase [2]): 19%

SMILES: CCCCCCOn1nnc2ccc(Cn3ccnc3)cc21 [Compound 202]
IC50 (aromatase [1]): 7.1 nM | % recovery estradiol (plasma estradiol relative to the controls) (aromatase [2]): 21%

SMILES: c1ccc(CCCOn2nnc3ccc(Cn4ccnc4)cc32)cc1 [Compound 207]
IC50 (aromatase [1]): 7.3 nM | % recovery estradiol (plasma estradiol relative to the controls) (aromatase [2]): 26%

SMILES: CCCCOn1nnc2ccc(Cn3ccnc3)cc21.Cl [Compound 226, 1-butoxy-6-(1H-imidazol-1-ylmethyl)-1H-benzotriazole monohydrochloride]
IC50 (aromatase [1]): 6.7 nM | % recovery estradiol (plasma estradiol relative to the controls) (aromatase [2]): 19%

SMILES: Clc1ccccc1C(c1ccccc1)(c1ccccc1)n1ccnc1 [clotrimazole]
inhibition of the action of the enzyme aromatase (in words) (aromatase [3]): inhibit the action of the enzyme aromatase

SMILES: CC(=O)N1CCN(c2ccc(OCC3COC(Cn4ccnc4)(c4ccc(Cl)cc4Cl)O3)cc2)CC1 (stereo not shown) [ketoconazole]
inhibition of the action of the enzyme aromatase (in words) (aromatase [3]): inhibit the action of the enzyme aromatase

SMILES: Clc1ccc(COC(Cn2ccnc2)c2ccc(Cl)cc2Cl)c(Cl)c1 (stereo not shown) [miconazole]
inhibition of the action of the enzyme aromatase (in words) (aromatase [3]): inhibit the action of the enzyme aromatase

More lines, main results first:

IC50 (aromatase [1]): 24.4 nM
SMILES: C=CCn1nnc2ccc(Cn3ccnc3)cc21 [Compound 106]
% recovery estradiol (plasma estradiol relative to the controls) (aromatase [2]): 8%

IC50 (aromatase [1]): 15.2 nM
SMILES: c1cn(Cc2ccc3nnn(CC4CC4)c3c2)cn1 [Compound 108]
% recovery estradiol (plasma estradiol relative to the controls) (aromatase [2]): 3%

IC50 (aromatase [1]): 14.3 nM
SMILES: c1csc(Cn2nnc3ccc(Cn4ccnc4)cc32)c1 [Compound 111]
% recovery estradiol (plasma estradiol relative to the controls) (aromatase [2]): 19%

IC50 (aromatase [1]): 7.6 nM
SMILES: CCCCn1nnc2ccc(Cn3ccnc3)cc21 [Compound 147, 1-butyl-6-(1H-imidazol-1-ylmethyl)-1H-benzotriazole]
% recovery estradiol (plasma estradiol relative to the controls) (aromatase [2]): 21%

IC50 (aromatase [1]): 9.2 nM
SMILES: BrCCOn1nnc2ccc(Cn3ccnc3)cc21 [Compound 204]
% recovery estradiol (plasma estradiol relative to the controls) (aromatase [2]): 19%

IC50 (aromatase [1]): 10 nM
SMILES: CCOn1nnc2ccc(Cn3ccnc3)cc21.Cl [Compound 225, 1-ethoxy-6-(1H-imidazol-1-ylmethyl)-1H-benzotriazole monohydrochloride]
% recovery estradiol (plasma estradiol relative to the controls) (aromatase [2]): 19%

IC50 (aromatase [1]): 7.4 nM
SMILES: CCCOn1nnc2ccc(Cn3ccnc3)cc21 [Compound 227, 6-(1H-imidazol-1-ylmethyl)-1-propoxy-1H-benzotriazole monohydrochloride. hemihydrate]
% recovery estradiol (plasma estradiol relative to the controls) (aromatase [2]): 19%
